{"source": "patent US9227971B2", "about": "“Pyrazolo[1,5-a]pyrimidine compounds as mTOR inhibitors” (Merck Sharp & Dohme Corp., priority 2010, dated 2016)", "key": {"[1]": {"test_system": "phosphorylated 4E-BP1 Thr37/46 (p4E-BP1 Thr37/46), mTORC1 activity, PC3 cells", "test": "mTOR target engagement assay, immunofluorescent cell-based, p4E-BP1 Thr37/46 readout (mTORC1 activity)", "conditions": "Homo sapiens, read-out: p4E-BP1 Thr37/46 IC50", "outline": "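Read-out is fluorescence intensity of immunostained p4E-BP1 Thr37/46 in fixed PC3 cells, fitted to a logistic curve for IC50 with DMSO-only wells as top. Cells had been exposed to serial compound dilutions for ninety minutes at 37° C in 5% FBS medium with 0.25% DMSO.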"}, "[2]": {"test_system": "phosphorylated AKT Ser473 (pAKT S473), mTORC2 activity, PC3 cells", "test": "mTOR target engagement assay, immunofluorescent cell-based, pAKT S473 readout (mTORC2 activity)", "conditions": "Homo sapiens", "outline": "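After blocking, cells were stained overnight at 4 °C with anti-pAKT S473 antibody, then a fluorescent secondary; inhibition was read as reduced fluorescence intensity.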"}, "[3]": {"conditions": "PC-3, PC3 cells, compound treatment ninety minutes at 37° C."}}, "note": "Read-outs that look alike come from different tables or passages of the source."}
{"smiles": "CC(=O)c1c([C@@H]2C[C@H]3CC[C@@H](C2)N3C(=O)c2nnc[nH]2)nc2c(-c3ccc(-c4nccs4)nc3)cnn2c1N", "note": "[Compound 1.1.37, 1-(5-((1R,3s,5S)-8-(4H-1,2,4-triazole-3-carbonyl)-8-azabicyclo[3.2.1]octan-3-yl)-7-amino-3-(6-(thiazol-2-yl)pyridin-3-yl)pyrazolo[1,5-a]pyrimidin-6-yl)ethanone]", "values": [{"measurement": "IC50", "setting": "[1]; [3]", "value": "1 to 100", "unit": "nM"}, {"measurement": "IC50", "setting": "[2]; [3]", "value": "1 to 100", "unit": "nM"}]}
{"smiles": "CCC(O)c1ccc(-c2cnn3c(N)c(C(C)=O)c([C@@H]4C[C@H]5CC[C@@H](C4)N5C(=O)c4nnc[nH]4)nc23)cn1", "note": "(some centres unmarked) [Compound 7.3]", "values": [{"measurement": "IC50", "setting": "[1]; [3]", "value": "100 to 1000", "unit": "nM"}, {"measurement": "IC50", "setting": "[2]; [3]", "value": "1 to 100", "unit": "nM"}]}
{"smiles": "CS(=O)(=O)c1c(C2CC3COCC(C2)N3C(=O)c2nc[nH]n2)nc2c(-c3ccc(-c4ccccc4)nc3)cnn2c1N", "note": "(centres unmarked) [Compound 8.29, (7-(7-amino-6-(methylsulfonyl)-3-(6-phenylpyridin-3-yl)pyrazolo[1,5-a]pyrimidin-5-yl)-3-oxa-9-azabicyclo[3.3.1]nonan-9-yl)(1H-1,2,4-triazol-3-yl)methanone]", "values": [{"measurement": "IC50", "setting": "[1]; PC-3, PC3 cells", "value": "1 to 100", "unit": "nM"}, {"measurement": "IC50", "setting": "[2]; PC-3, PC3 cells", "value": "1 to 100", "unit": "nM"}]}
{"smiles": "Nc1c(C2CC2)c([C@@H]2C[C@H]3CC[C@@H](C2)N3C(=O)c2nnc[nH]2)nc2c(-c3ccc(-c4ncc[nH]4)c(F)c3)cnn12", "note": "[Compound 6.36, ((1R,3s,5S)-3-(7-amino-6-cyclopropyl-3-(3-fluoro-4-(1H-imidazol-2-yl)phenyl)pyrazolo[1,5-a]pyrimidin-5-yl)-8-azabicyclo[3.2.1]octan-8-yl)(4H-1,2,4-triazol-3-yl)methanone]", "values": [{"measurement": "IC50", "setting": "[1]; PC-3, Table 6-1, PC3 cells", "value": "1 to 100", "unit": "nM"}, {"measurement": "IC50", "setting": "[2]; PC-3, Table 6-1, PC3 cells", "value": "1 to 100", "unit": "nM"}]}
{"smiles": "CS(=O)(=O)c1c([C@@H]2C[C@H]3CC[C@@H](C2)N3C(N)=O)nc2c(-c3ccc(-c4ccc(F)cc4)nc3)cnn2c1N", "note": "[Compound 3.126, (1R,3s,5S)-3-(7-amino-3-(6-(4-fluorophenyl)pyridin-3-yl)-6-(methylsulfonyl)pyrazolo[1,5-a]pyrimidin-5-yl)-8-azabicyclo[3.2.1]octane-8-carboxamide]", "values": [{"measurement": "IC50", "setting": "[1]; PC-3, Table 3-1, PC3 cells", "value": "1 to 100", "unit": "nM"}, {"measurement": "IC50", "setting": "[2]; PC-3, Table 3-1, PC3 cells", "value": "1 to 100", "unit": "nM"}]}
{"smiles": "CCN/C(=N\\CCCN(C)C)n1ncc(C(=O)N2[C@@H]3CC[C@H]2C[C@H](c2nc4c(-c5ccc(-c6ccccc6F)nc5)cnn4c(N)c2S(C)(=O)=O)C3)n1", "note": "[Compound 8.46, (E)-4-((1R,3s,5S)-3-(7-amino-3-(6-(2-fluorophenyl)pyridin-3-yl)-6-(methylsulfonyl)pyrazolo[1,5-a]pyrimidin-5-yl)-8-azabicyclo[3.2.1]octane-8-carbonyl)-N′-(3-(dimethylamino)propyl)-N-ethyl-2H-1,2,3-triazole-2-carboximidamide]", "values": [{"measurement": "IC50", "setting": "[1]; PC-3, PC3 cells", "value": "100 to 1000", "unit": "nM"}, {"measurement": "IC50", "setting": "[2]; PC-3, PC3 cells", "value": "1 to 100", "unit": "nM"}]}
{"smiles": "COc1c(F)cc(-c2ccc(-c3cnn4c(N)c(S(C)(=O)=O)c([C@@H]5C[C@H]6CC[C@@H](C5)N6C(=O)c5nnc[nH]5)nc34)cn2)cc1F", "note": "[Compound 3.49, ((1R,3s,5S)-3-(7-amino-3-(6-(3,5-difluoro-4-methoxyphenyl)pyridin-3-yl)-6-(methylsulfonyl)pyrazolo[1,5-a]pyrimidin-5-yl)-8-azabicyclo[3.2.1]octan-8-yl)(4H-1,2,4-triazol-3-yl)methanone]", "values": [{"measurement": "IC50", "setting": "[1]; PC-3, Table 3-1, PC3 cells", "value": "100 to 1000", "unit": "nM"}, {"measurement": "IC50", "setting": "[2]; PC-3, Table 3-1, PC3 cells", "value": "100 to 1000", "unit": "nM"}]}
{"smiles": "CNC(=O)Nc1ccc(-c2cnn3c(N)c(C(C)=O)c([C@@H]4C[C@H]5CC[C@@H](C4)N5C(=O)c4ncn[nH]4)nc23)cn1", "note": "[Compound 8.75, 1-(5-(5-((1R,3s,5S)-8-(1H-1,2,4-triazole-5-carbonyl)-8-azabicyclo[3.2.1]octan-3-yl)-6-acetyl-7-aminopyrazolo[1,5-a]pyrimidin-3-yl)pyridin-2-yl)-3-methylurea]", "values": [{"measurement": "IC50", "setting": "[1]; PC-3, PC3 cells", "value": "100 to 1000", "unit": "nM"}, {"measurement": "IC50", "setting": "[2]; PC-3, PC3 cells", "value": "1 to 100", "unit": "nM"}]}
{"smiles": "CC(=O)c1c([C@@H]2C[C@H]3CC[C@@H](C2)N3C(=O)c2cc[nH]c2)nc2c(-c3ccc(-c4ncc[nH]4)nc3)cnn2c1N", "note": "[Compound 6.11, 1-(3-(6-(1H-imidazol-2-yl)pyridin-3-yl)-5-((1R,3s,5S)-8-(1H-pyrrole-3-carbonyl)-8-azabicyclo[3.2.1]octan-3-yl)-7-aminopyrazolo[1,5-a]pyrimidin-6-yl)ethanone]", "values": [{"measurement": "IC50", "setting": "[1]; PC-3, Table 6-1, PC3 cells", "value": "1 to 100", "unit": "nM"}, {"measurement": "IC50", "setting": "[2]; PC-3, Table 6-1, PC3 cells", "value": "1 to 100", "unit": "nM"}]}
{"smiles": "COc1ccc(-c2ccc(-c3cnn4c(N)c(S(C)(=O)=O)c([C@@H]5C[C@H]6CC[C@@H](C5)N6C(=O)CO)nc34)cn2)cc1F", "note": "[Compound 3.38, 1-((1R,3s,5S)-3-(7-amino-3-(6-(3-fluoro-4-methoxyphenyl)pyridin-3-yl)-6-(methylsulfonyl)pyrazolo[1,5-a]pyrimidin-5-yl)-8-azabicyclo[3.2.1]octan-8-yl)-2-hydroxyethanone]", "values": [{"measurement": "IC50", "setting": "[1]; PC-3, Table 3-1, PC3 cells", "value": "100 to 1000", "unit": "nM"}, {"measurement": "IC50", "setting": "[2]; PC-3, Table 3-1, PC3 cells", "value": "1 to 100", "unit": "nM"}]}
{"smiles": "CS(=O)(=O)c1c([C@@H]2C[C@H]3CC[C@@H](C2)N3C(=O)CO)nc2c(-c3ccc(-c4ncc[nH]4)cc3)cnn2c1N", "note": "[Compound 6.35, 1-((1R,3s,5S)-3-(3-(4-(1H-imidazol-2-yl)phenyl)-7-amino-6-(methylsulfonyl)pyrazolo [1,5-a]pyrimidin-5-yl)-8-azabicyclo[3.2.1]octan-8-yl)-2-hydroxyethanone]", "values": [{"measurement": "IC50", "setting": "[1]; PC-3, Table 6-1, PC3 cells", "value": "100 to 1000", "unit": "nM"}, {"measurement": "IC50", "setting": "[2]; PC-3, Table 6-1, PC3 cells", "value": "1 to 100", "unit": "nM"}]}
{"smiles": "COCc1c([C@@H]2C[C@H]3CC[C@@H](C2)N3C(=O)c2nnc[nH]2)nc2c(-c3ccc(-c4ccc(OC)cc4)nc3)cnn2c1N", "note": "[Compound 5.6, ((1R,3s,5S)-3-(7-amino-6-(methoxymethyl)-3-(6-(4-methoxyphenyl)pyridin-3-yl)pyrazolo[1,5-a]pyrimidin-5-yl)-8-azabicyclo[3.2.1]octan-8-yl)(4H-1,2,4-triazol-3-yl)methanone]", "values": [{"measurement": "IC50", "setting": "[1]; [3]", "value": "1 to 100", "unit": "nM"}, {"measurement": "IC50", "setting": "[2]; [3]", "value": "1 to 100", "unit": "nM"}]}
{"smiles": "CC(=O)c1c([C@@H]2C[C@H]3CC[C@@H](C2)N3C(=O)c2nnc[nH]2)nc2c(-c3ccc([C@@H](C)O)nc3)cnn2c1N", "note": "[Compound 7.14, 1-(5-((1R,3s,5S)-8-(4H-1,2,4-triazole-3-carbonyl)-8-azabicyclo[3.2.1]octan-3-yl)-7-amino-3-(6-((R)-1-hydroxyethyl)pyridin-3-yl)pyrazolo[1,5-a]pyrimidin-6-yl)ethanone]", "values": [{"measurement": "IC50", "setting": "[1]; [3]", "value": "100 to 1000", "unit": "nM"}, {"measurement": "IC50", "setting": "[2]; [3]", "value": "100 to 1000", "unit": "nM"}]}
{"smiles": "COc1ccc(-c2ccc(-c3cnn4c(N)cc([C@@H]5C[C@H]6CC[C@@H](C5)N6C(=O)c5nnc[nH]5)nc34)cn2)cc1F", "note": "[Compound 2.5, ((1R,3s,5S)-3-(7-amino-3-(6-(3-fluoro-4-methoxyphenyl)pyridin-3-yl)pyrazolo[1,5-a]pyrimidin-5-yl)-8-azabicyclo[3.2.1]octan-8-yl)(4H-1,2,4-triazol-3-yl)methanone]", "values": [{"measurement": "IC50", "setting": "[1]; [3]", "value": "1000 to 10000", "unit": "nM"}, {"measurement": "IC50", "setting": "[2]; [3]", "value": "100 to 1000", "unit": "nM"}]}
{"smiles": "CCC(O)c1ccc(-c2cnn3c(N)c(S(C)(=O)=O)c([C@@H]4C[C@H]5CC[C@@H](C4)N5C(=O)c4nnc[nH]4)nc23)cn1", "note": "(stereo partly drawn) [Compound 7.26, ((1R,3s,5S)-3-(7-amino-3-(6-(1-hydroxypropyl)pyridin-3-yl)-6-(methylsulfonyl)pyrazolo[1,5-a]pyrimidin-5-yl)-8-azabicyclo[3.2.1]octan-8-yl)(4H-1,2,4-triazol-3-yl)methanone]", "values": [{"measurement": "IC50", "setting": "[1]; PC-3, Table 7-2, PC3 cells", "value": "100 to 1000", "unit": "nM"}, {"measurement": "IC50", "setting": "[2]; PC-3, Table 7-2, PC3 cells", "value": "100 to 1000", "unit": "nM"}]}
{"smiles": "Nc1cc([C@]2(O)C[C@H]3CC[C@@H](C2)N3C(=O)c2nnc[nH]2)nc2c(-c3ccc(-c4ccccc4)nc3)cnn12", "note": "[Compound 8.23, ((1R,3r,5S)-3-(7-amino-3-(6-phenylpyridin-3-yl)pyrazolo[1,5-a]pyrimidin-5-yl)-3-hydroxy-8-azabicyclo[3.2.1]octan-8-yl)(4H-1,2,4-triazol-3-yl)methanone]", "values": [{"measurement": "IC50", "setting": "[1]; PC-3, PC3 cells", "value": "1000 to 10000", "unit": "nM"}, {"measurement": "IC50", "setting": "[2]; PC-3, PC3 cells", "value": "1000 to 10000", "unit": "nM"}]}
